# Measurements reported in PubChem BioAssay (NCI).
#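 Tested at 5 concentrations; 48 h exposure; 96-well plates; endpoints linearly interpolated, else capped at highest concentration. The concentration for full growth arrest is given as TGI.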
# Legend:
# Assay in all cases: DTP human tumour cell line panel, 48 h
# SF-295 CNS = tested on: SF-295 CNS
# SF-268 CNS = tested on: SF-268 CNS
# NCI-H226 lung = tested on: NCI-H226 lung
# HS 578T breast = tested on: HS 578T breast
# OVCAR-5 ovarian = tested on: OVCAR-5 ovarian
# DMS 273 small cell lung = tested on: DMS 273 small cell lung
# COLO 205 colon = tested on: COLO 205 colon
# HT29 colon = tested on: HT29 colon
# SW-620 colon = tested on: SW-620 colon
# UACC-257 melanoma = tested on: UACC-257 melanoma
# T-47D breast = tested on: T-47D breast
# RXF 393 renal = tested on: RXF 393 renal
# HCT-116 colon = tested on: HCT-116 colon
# U251 CNS = tested on: U251 CNS
# BT-549 breast = tested on: BT-549 breast
# OVCAR-3 ovarian = tested on: OVCAR-3 ovarian
# DU-145 prostate = tested on: DU-145 prostate
# HOP-62 NSCLC = tested on: HOP-62 NSCLC
# SN12C renal = tested on: SN12C renal
# MDA-N = tested on: MDA-N
SMILES,TGI (SF-295 CNS),TGI (SF-268 CNS),TGI (NCI-H226 lung),TGI (HS 578T breast),TGI (OVCAR-5 ovarian),TGI (DMS 273 small cell lung),TGI (COLO 205 colon),TGI (HT29 colon),TGI (SW-620 colon),TGI (UACC-257 melanoma),TGI (T-47D breast),TGI (RXF 393 renal),TGI (HCT-116 colon),TGI (U251 CNS),TGI (BT-549 breast),TGI (OVCAR-3 ovarian),TGI (DU-145 prostate),TGI (HOP-62 NSCLC),TGI (SN12C renal),TGI (MDA-N)
O=C1C=CC(=O)c2c1ccc1c3ccccc3n(-c3ccccc3)c21,22.2 µM,40.9 µM,40 µM,60.5 µM,31.7 µM,32.1 µM,22.8 µM,37 µM,7.31 µM,19.2 µM,4.78 µM,5.34 µM,7.03 µM,43.7 µM,27 µM,21.9 µM,37.2 µM,37.7 µM,26.6 µM,18.3 µM
N#Cc1cc([N+](=O)[O-])ccc1NC(=O)/C(=N\NC(=O)c1ccncc1)C(c1cnc2ccc([N+](=O)[O-])cc2n1)[N+](=O)[O-] (stereo not given),4 µM,11.6 µM,7.58 µM,6.23 µM,22.4 µM,6.59 µM,17.9 µM,41.8 µM,5.5 µM,3.05 µM,18.4 µM,10.8 µM,7.33 µM,6.63 µM,3.55 µM,4.29 µM,11.8 µM,6.8 µM,3.71 µM,1.26 µM
